Results reported in US20080280890A1, “HYDROXYLAMINE COMPOUNDS AND METHODS OF THEIR USE” (priority 2007, published 2008).
Counter-ions that a name gives are not always drawn.

Assays:
[1] = tested on: Human neuroblastoma SKN-SH cells, resistant to doxorubicin; assay: Chemoresistance: cancer cell viability (MTT) in presence or absence of doxorubicin; assay type: cell-based; conditions: compound 50 ug/mL, MTT
From the text: A method for evaluating a compound's propensity to overcome cancer cell chemoresistance is described in “Caspase Inhibition Switches Doxorubicin-Induced Apoptosis To Senescence”, Abdelhadi Rebbaa, Xin Zheng, Pauline M Chou and Bernard L Mirkin, Oncogene (2003) 22, 2805-2811. Resistant human cancer cells to doxorubicin were selected by stepwise exposure to drug concentrations ranging from 10^−9 M-10^−6 M over 3 months. They were then subjected to treatment with the doxorubicin alone or in combination with hydroxylamine compounds 1-12, 16, 20, and 21 (Table 4). The cells were incubated with the drugs for 72 hours, and cell viability was measured by the MTT assay. Additionally, molecular pathways that might be associated with increased chemo-responsiveness with these compounds were investigated. p Cancer Cell Viability Data for certain hydroxylamines in the presence or absence of Doxorubicin is listed in Table 4.
A method for evaluating a compound's propensity to overcome cancer cell chemoresistance is described in “Caspase Inhibition Switches Doxorubicin-Induced Apoptosis To Senescence”, Abdelhadi Rebbaa, Xin Zheng, Pauline M Chou and Bernard L Mirkin, Oncogene (2003) 22, 2805-2811. Human neuroblastoma SKN-SH cells (ATCC Cat. No. HTB-11) were cultured in Dulbecco's Modified Eagles Medium (DMEM; Gibco, Grand Island, N.Y.) supplemented with 10% fetal bovine serum (FBS; Sigma-Aldrich, St. Louis, Mo.) at 37° C. in a 95% Air/5% CO2 atmosphere. Resistant human cancer cells to doxorubicin were selected by stepwise exposure to drug concentrations ranging from 10^−9M-10^−6M over 3 months. They were then subjected to treatment with the doxorubicin alone or in combination with hydroxylamine compounds. The cells were incubated with the drugs for 72 hours, and cell viability was measured by the MTT assay. This consists of adding 10 μl/well of MTT (5 mg/ml solution) and incubation for 4 h at 37° C. The precipitate formed is then solubilized by addition of 100 μl of HCL 0.5 N/Isopropanol and incubation for 15 hours at 37° C. The optical density is measured at 570 nm and cell survival is estimated by comparison to untreated cells. Each point represents 4 wells data represent average ± SE. Additionally, molecular pathways that might be associated with increased chemo-responsiveness with these compounds were investigated.
Cytotoxic activity of doxorubicin and hydroxylamine analogs were quantitatively determined by a colorimetric assay utilizing 3-(4,5-dimethyl-2-thiazolyl) 2,5-diphenyl tetrazolium bromide (MTT; Sigma-Aldrich, St. Louis, Mo.). Briefly, cells were seeded at 10^4 cells/well in 96-well plates and maintained in culture for 24 hours at 37° C. in DMEM supplemented with 10% FBS. Drugs were added to designated wells and cells were incubated for […], following which MTT (10 μL of 5 mg/ml solution) was added to each 100 μl well and incubated for 4 hours at 37° C. The cells were solubilized by incubation with 100 μl of HCl 0.5N in isopropanol for 15 hours at 37° C. The optical density of this solution was measured at 570 nm and the percentage of viable cells estimated by comparison with untreated control cells.

[2] = tested on: Angiogenesis in CAM model; assay: Neovascularization on the CAM (chick chorioallantoic membrane model of angiogenesis); assay type: in vivo, chicken; conditions: 30 ug; unit assumed
Protocol: In vivo neovascularization was examined by the method previously described by Auerbach et al. (J. Dev. Biol. 41:391-394 (1974)). Ten-day old chicken embryos were purchased from Spafas, Inc. (Preston, Conn.) and were incubated at 37° C. with 55% relative humidity. In the dark, with the aid of a candling lamp, a small hole was punctured in the shell concealing the air sac with a hypodermic needle. A second hole was punctured in the shell on the broadside of the egg directly over an […] portion of the embryonic membrane, as observed during candling. An artificial air sac was created beneath the second hole by applying gentle vacuum to the first hole using a small rubber squeeze bulb. The vacuum caused the chorioallantoic membrane (CAM) to separate from the shell.
A window, approximately 1.0 cm^2, was cut in the shell over the dropped CAM with the use of a small crafts grinding wheel (Dremel, Division of Emerson Electric Company Racine, Wis.). The window allowed direct access to the underlying CAM.
A pro-angiogenic agent was added to induce new blood vessel branches on the CAM of 10-day old embryos. Filter disks of #1 filter paper (Whatman International, United Kingdom) were punched using a small puncher and were soaked in 3 mg/mL cortisone acetate (Sigma, St. Louis, Mo.) in a solution (95% ethanol and water). The disks were subsequently air dried under sterile conditions. The disks were then suspended in PBS (Phosphate Buffered Saline) and placed on growing CAMs. Filters treated with TP-H (TEMPOL-H) or TEMPOL and/or H2O2 or TP-H and/or bFGF or VEGF were placed on the first day of the 3-day incubation.
For inducing angiogenesis, sterile filter disks were saturated with bFGF (1 μg/ml) (Life Technologies, Gaithersburg, Md.) or other pro-angiogenesis factors and control disks were saturated with PBS without Calcium and Magnesium. […]
Using sterile forceps one filter/CAM was placed from the window. The window was sealed with Highland brand transparent tape.
After 24-48 hr, 10-25 ul of test agent was injected intravenously or added topically into the CAM membrane. Eight-Ten eggs/treatment group were used.
CAM tissue directly beneath filter disk was harvested from embryos treated 48 hours prior with compound or control. Tissues were washed three times with PBS. Sections were placed in a 35-mm petri dish (Nalge Nunc, Rochester, N.Y.) and examined under a SV6 stereomicroscope (Karl Zeiss, Thornwood, N.Y.) at 50× magnification.
CAM sections from Petri dish were examined using SV6 stereomicroscope (Karl Zeiss) at 50× magnification. Digital images of CAM sections from Petri dish were collected using a 3-CCD color video camera system (Toshiba America, New York, N.Y.). These images were analyzed using Image-Pro Plus software (Media Cybernetics, Silver Spring, Md.).
The number of branch points in blood vessels within the circular region superimposed to the area of a filter disk was counted for each section. After incubation at 37° C. with 55% relative humidity for 3 days, the CAM tissue directly beneath each filter disk was resected from control and treated CAM samples. Tissues were washed three times with PBS. Sections were placed in a 35-mm Petri dish (Nalge Nunc; Rochester, N.Y.) and were examined under a SV6 stereomicroscope (Karl Zeiss; Thornwood, N.Y.) at 50× magnification. Digital images of CAM sections adjacent to filters were collected using a 3-CCD color video camera system (Toshiba America; New York, N.Y.) and analyzed with the Image-Pro Plus software (Media Cybernetics; Silver Spring, Md.).
The number of vessel branch points contained in a circular region equal to the area of a filter disk was counted for each section. Percent inhibition data are expressed as the quotient of the experimental value minus the negative control value divided by the difference between the positive control value and the negative control value. […]

Row | SMILES | melting point | Mean OD (×10^−3), cancer cell viability ([1]; Dox. 10^−6 M present (+)) | Mean OD (×10^−3), cancer cell viability ([1]; Dox. absent (−)) | Percent inhibition of angiogenesis in CAM model at 30 ug [2] [%]
1 | CC1(C)c2ccc(Br)cc2C(C)(C)N1O.Cl | 214.1 °C | – | – | –
2 | CC1(C)CC(O)(c2ccccc2)CC(C)(C)N1O.Cl [Compound 42, 1,4-Dihydroxy-4-phenyl-2,2,6,6-tetrmethylpiperidine] | 201.7 °C (dec.) | 311.00 ×10^−3 | 1068.67 ×10^−3 | 61.9
3 | CC1(C)CC(NS(C)(=O)=O)CC(C)(C)N1O (as salt: salt) [Compound 10, 1-hydroxy-4-methanesulfonamido-2,2,6,6-tetramethylpiperidine] | 178.3 °C (dec.) | – | – | –
4 | CC1(C)CC(Oc2nsnc2N2CCN(C(=O)c3ccco3)CC2)CC(C)(C)N1O.Cl | 198.1 °C (dec.) | – | – | –
5 | CC1(C)CC(NC(=O)CCCCC2CCSS2)CC(C)(C)N1O (centres unmarked) (as salt: hydrochloride) [Compound 49, 5-(1,2-dithialan-3-yl)-N-(1-hydroxy-2,2,6,6-tetramethylpiperidin-4-yl)pentanamide] | 164.7 °C (dec.) | – | – | –
6 | CC1(C)COC(=O)C(C)(C)N1O.Cl [Compound 39, N-Hydroxyl-3,3,5,5-tetramethylmorpholin-2-one] | 145 °C (dec.) | 311.00 ×10^−3 | 1201.00 ×10^−3 | 96.9
7 | CC1(C)CC(Oc2nc3ccccc3s2)CC(C)(C)N1O.Cl | 160 °C (dec.) | – | – | –
8 | CC1(C)CC(Oc2nsnc2N2CCSCC2)CC(C)(C)N1O.Cl [Compound 55, 4-(4-(1-hydroxy-2,2,6,6-tetramethylpiperidin-4-yloxy)-1,2,5-thiadiazol-3-yl)thiomorpholine] | 218 °C (dec.) | 285.75 ×10^−3 | 1037.25 ×10^−3 | –
9 | CC1(C)CC(Oc2nc3ccc(F)cc3s2)CC(C)(C)N1O.Cl | 178 °C (dec.) | – | – | –
10 | CC1(C)CC(Oc2nsnc2C#N)CC(C)(C)N1O (as salt: hydrochloride) [Compound 45] | 179.2 °C (dec.) | – | – | –
11 | CC(C)c1nsnc1OCC1=CC(C)(C)N(O)C1(C)C (as salt: hydrochloride) [Compound 51] | 155.7 °C | – | – | –
12 | COc1cc2c(cc1OC)CN(c1nsnc1OC1CC(C)(C)N(O)C(C)(C)C1)CC2.Cl | 166.9 °C (dec.) | – | – | –
13 | CC1(C)CC(Oc2nsnc2C(=O)O)CC(C)(C)N1O.Cl | 209.1 °C (dec.) | – | – | –
14 | CC1(C)C=C(CO)C(C)(C)N1O (as salt: chloride) [Compound 8] | 141.9 °C (dec.) | – | – | –
15 | Cc1c(C)c2c(c(C)c1O)CCC(C)(C(=O)NC1CC(C)(C)N(O)C(C)(C)C1)O2.Cl (centres unmarked) | 174.9 °C (dec.) | – | – | –
16 | COc1ccc(C2=C(c3cc(OC)c(OC)c(OC)c3)C(C)(C)N(O)C2(C)C)cc1C=O [Compound 46, 5-(2,5,-dihydro-4-(3,4,5-trimethoxyphenyl)-1-hydroxy-2,2,5,5-tetramethyl-1H-pyrrol-3-yl)-2-methoxybenzaldehyde] | – | 32.75 ×10^−3 | 79.00 ×10^−3 | 45.1
17 | CC1(C)CC(=CC(=O)N2CCN(c3ccccc3)CC2)CC(C)(C)N1O [Compound 56] | – | 308.75 ×10^−3 | 1153.00 ×10^−3 | 66.1

Further lines, with some results ahead:

Row | melting point | SMILES | Mean OD (×10^−3), cancer cell viability ([1]; Dox. 10^−6 M present (+)) | Mean OD (×10^−3), cancer cell viability ([1]; Dox. absent (−)) | Percent inhibition of angiogenesis in CAM model at 30 ug [2] [%]
18 | 197 °C (dec.) | CC(C)(C)OC(=O)c1nsnc1OC1CC(C)(C)N(O)C(C)(C)C1.Cl | – | – | –
19 | 155.7 °C (dec.) | CC1(C)C=C(COc2ccccc2N2CCOCC2)C(C)(C)N1O.Cl | – | – | –
20 | 201.8 °C (dec.) | CC1(C)CC(Cl)CC(C)(C)N1O.Cl [Compound 21, 4-chloro-1-hydroxy-2,2,6,6-tetramethylpiperidine] | 99.25 ×10^−3 | 492.75 ×10^−3 | 60.9
21 | 173.2 °C | Cc1nsnc1OCC1=CC(C)(C)N(O)C1(C)C (as salt: hydrochloride) [Compound 47, 3-((1-hydroxy-2,5-dihydro-2,2,5,5-tetramethyl-1H-pyrrol-3-yl)methoxy)-4-methyl-1,2,5-thiadiazole] | – | – | –
22 | 181 °C | COc1cc(CNC2CC(C)(C)N(O)C(C)(C)C2)cc(OC)c1OC.Cl.Cl [Compound 58, N-(3,4,5-trimethoxybenzyl)-1-hydroxy-2,2,6,6-tetramethylpiperidin-4-amine] | 291.50 ×10^−3 | 1207.00 ×10^−3 | 39
23 | 155.5 °C (dec.) | CC1(C)CC(O)C(C)(C)N1O (centres unmarked) (as salt: salt) [Compound 7, 2,2,5,5-Tetramethyl-Pyrrolidine-1,3-diol] | – | – | –
24 | 181.5 °C (dec.) | CC1(C)CC(OCc2ccccc2)CC(C)(C)N1O.Cl [Compound 43, 4-Benzyloxy-1-hydroxy-2,2,6,6-tetramethylpiperidine] | 324.67 ×10^−3 | 1159.00 ×10^−3 | 85.5
25 | 220 °C (dec.) | COc1ccc2nc(NC3CC(C)(C)N(O)C(C)(C)C3)sc2c1.Cl | – | – | –
26 | 183 °C (dec.) | CC1(C)CC(Nc2nc3ccccc3s2)CC(C)(C)N1O.Cl | – | – | –
27 | 186 °C (dec.) | CC1(C)CC(C#N)CC(C)(C)N1O.Cl [Compound 12, 4-cyano-1-hydroxyl-2,2,6,6-tetramethylpiperidine] | 287.25 ×10^−3 | 539.25 ×10^−3 | –
